From US8624040B2, “Substituted hydroxamic acids and uses thereof” (Millennium Pharmaceuticals, Inc., priority 2009, dated 2014)

Biological target: T1, purified human HDAC6 (Homo sapiens, UniProt Q9UBN7)
T1 construct: purchased BPS Bioscience 5006
T1 sequence (Q9UBN7 1-1215): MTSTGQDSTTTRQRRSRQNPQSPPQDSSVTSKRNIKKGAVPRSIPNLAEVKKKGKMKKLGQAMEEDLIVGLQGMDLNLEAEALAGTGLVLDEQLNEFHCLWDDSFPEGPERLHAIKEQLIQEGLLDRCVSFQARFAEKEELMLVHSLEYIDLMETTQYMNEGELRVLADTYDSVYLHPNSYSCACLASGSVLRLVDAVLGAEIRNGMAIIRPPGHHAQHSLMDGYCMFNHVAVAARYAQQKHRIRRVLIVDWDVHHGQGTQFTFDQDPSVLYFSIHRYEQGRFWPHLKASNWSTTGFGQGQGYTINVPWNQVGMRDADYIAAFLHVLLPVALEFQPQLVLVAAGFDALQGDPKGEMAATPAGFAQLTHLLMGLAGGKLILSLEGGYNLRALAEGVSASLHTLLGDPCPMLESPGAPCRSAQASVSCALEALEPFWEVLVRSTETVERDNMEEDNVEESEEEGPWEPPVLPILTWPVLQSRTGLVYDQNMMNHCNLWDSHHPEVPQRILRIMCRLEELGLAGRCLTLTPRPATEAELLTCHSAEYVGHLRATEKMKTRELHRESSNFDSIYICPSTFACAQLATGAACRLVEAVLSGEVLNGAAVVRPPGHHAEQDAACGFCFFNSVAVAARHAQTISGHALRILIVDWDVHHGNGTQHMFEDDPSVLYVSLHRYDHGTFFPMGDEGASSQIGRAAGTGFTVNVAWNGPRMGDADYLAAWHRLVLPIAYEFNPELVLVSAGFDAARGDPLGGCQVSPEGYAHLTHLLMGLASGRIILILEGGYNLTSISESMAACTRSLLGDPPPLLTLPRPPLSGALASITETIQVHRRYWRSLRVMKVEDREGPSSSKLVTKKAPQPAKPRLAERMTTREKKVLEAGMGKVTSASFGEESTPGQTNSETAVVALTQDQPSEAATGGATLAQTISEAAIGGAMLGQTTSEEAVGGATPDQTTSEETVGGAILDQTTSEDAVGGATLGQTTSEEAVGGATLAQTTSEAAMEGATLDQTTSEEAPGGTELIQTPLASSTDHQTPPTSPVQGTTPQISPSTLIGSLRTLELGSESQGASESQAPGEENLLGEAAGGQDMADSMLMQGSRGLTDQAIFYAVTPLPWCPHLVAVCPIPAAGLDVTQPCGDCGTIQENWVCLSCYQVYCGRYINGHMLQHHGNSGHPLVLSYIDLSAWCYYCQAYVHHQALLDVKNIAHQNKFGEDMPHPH
Assay: HDAC6 Enzyme Assay
Assay type: biochemical
Conditions: enzyme inhibition, substrate Ac-Arg-Gly-Lys(Ac)-AMC, 1 hour at 30° C.
Summary of the method: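 Purified human HDAC6 incubated 1 h at 30 °C with Ac-Arg-Gly-Lys(Ac)-AMC peptide and compound; reaction stopped with trichostatin A, then trypsin releases AMC, read by fluorescence (Ex 340/Em 460 nm). IC50 from concentration-response curves relative to DMSO controls.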

Q: With `Cc1c(C(=O)NO)sc2c1CN(C(=O)c1ccc(Cl)cc1)CC2` [Compound 193, 5-(4-chlorobenzoyl)-N-hydroxy-3-methyl-4,5,6,7-tetrahydrothieno[3,2-c]pyridine-2-carboxamide] as the compound, how does the IC50 read?
A: < 50 nM

Q: `Cc1c(C(=O)NO)sc2c1CN(C(=O)c1cccn1C)CC2` [Compound 194, N-hydroxy-3-methyl-5-[(1-methyl-1H-pyrrol-2-yl)carbonyl]-4,5,6,7-tetrahydrothieno[3,2-c]pyridine-2-carboxamide] was tested. Which IC50 did it give?
A: < 50 nM

Q: How did the IC50 turn out when `CC1(C)CN(C(=O)c2cc3ccccc3s2)Cc2cc(C(=O)NO)sc21` [Compound 195, 5-(1-benzothien-2-ylcarbonyl)-N-hydroxy-7,7-dimethyl-4,5,6,7-tetrahydrothieno[3,2-c]pyridine-2-carboxamide] was run?
A: > 1000 nM

Q: Which IC50 does the source give for `CC1(C)CN(C(=O)Nc2ccc(C#N)cc2)Cc2cc(C(=O)NO)sc21` [Compound 196, N^5-(4-cyanophenyl)-N2-hydroxy-7,7-dimethyl-6,7-dihydrothieno[3,2-c]pyridine-2,5(4H)-dicarboxamide] here?
A: > 1000 nM

Q: For `CC1(C)CN(C(=O)c2ccc3c(c2)OCCCO3)Cc2cc(C(=O)NO)sc21` [Compound 198, 5-(3,4-dihydro-2H-1,5-benzodioxepin-7-ylcarbonyl)-N-hydroxy-7,7-dimethyl-4,5,6,7-tetrahydrothieno[3,2-c]pyridine-2-carboxamide], which IC50 is on record?
A: > 1000 nM

Q: For `Cc1nc(-c2ccccn2)sc1C(=O)N1CCc2sc(C(=O)NO)c(C)c2C1` [Compound 199, N-hydroxy-3-methyl-5-[(4-methyl-2-pyridin-2-yl-1,3-thiazol-5-yl)carbonyl]-4,5,6,7-tetrahydrothieno[3,2-c]pyridine-2-carboxamide], which IC50 is on record?
A: 50 to 100 nM

Q: Which IC50 does the source give for `Cc1c(C(=O)NO)sc2c1CN(C(=O)c1cc3ccccc3s1)CC2` [Compound 205, 5-(1-benzothien-2-ylcarbonyl)-N-hydroxy-3-methyl-4,5,6,7-tetrahydrothieno[3,2-c]pyridine-2-carboxamide] here?
A: < 50 nM

Q: How did the IC50 turn out when `COc1ccc(C(=O)N2CCc3sc(C(=O)NO)c(C)c3C2)cc1` [Compound 209, N-hydroxy-5-(4-methoxybenzoyl)-3-methyl-4,5,6,7-tetrahydrothieno[3,2-c]pyridine-2-carboxamide] was run?
A: < 50 nM

Q: Which IC50 does the source give for `Cn1cccc1C(=O)N1Cc2cc(C(=O)NO)sc2C(C)(C)C1` [Compound 210, N-hydroxy-7,7-dimethyl-5-[(1-methyl-1H-pyrrol-2-yl)carbonyl]-4,5,6,7-tetrahydrothieno[3,2-c]pyridine-2-carboxamide] here?
A: > 1000 nM

Q: `CC(C)(C)OC(=O)N1CCc2sc(C(=O)NO)cc2C1` [Compound 212, tert-butyl 2-[(hydroxyamino)carbonyl]-6,7-dihydrothieno[3,2-c]pyridine-5(4H)-carboxylate] was tested. Which IC50 did it give?
A: < 50 nM

Q: With `COc1ccc(C(=O)N2Cc3cc(C(=O)NO)sc3C(C)(C)C2)cc1` [Compound 214, N-hydroxy-5-(4-methoxybenzoyl)-7,7-dimethyl-4,5,6,7-tetrahydrothieno[3,2-c]pyridine-2-carboxamide] as the compound, how does the IC50 read?
A: > 1000 nM

Q: How did the IC50 turn out when `Cc1c(C(=O)NO)sc2c1CN(C(=O)c1cc3ccccc3o1)CC2` [Compound 216, 5-(1-benzofuran-2-ylcarbonyl)-N-hydroxy-3-methyl-4,5,6,7-tetrahydrothieno[3,2-c]pyridine-2-carboxamide] was run?
A: 50 to 100 nM

Q: For `CC1(C)CN(C(=O)c2ccc(Cl)cc2)Cc2cc(C(=O)NO)sc21` [Compound 218, 5-(4-chlorobenzoyl)-N-hydroxy-7,7-dimethyl-4,5,6,7-tetrahydrothieno[3,2-c]pyridine-2-carboxamide], which IC50 is on record?
A: > 1000 nM

Q: How did the IC50 turn out when `CC1(C)CN(C(=O)c2ccccn2)Cc2cc(C(=O)NO)sc21` [Compound 220, N-hydroxy-7,7-dimethyl-5-(pyridin-2-ylcarbonyl)-4,5,6,7-tetrahydrothieno[3,2-c]pyridine-2-carboxamide] was run?
A: > 1000 nM

Q: Which IC50 does the source give for `Cc1c(C(=O)NO)sc2c1CN(C(=O)c1sc3ccccc3c1Cl)CC2` [Compound 221, 5-[(3-chloro-1-benzothien-2-yl)carbonyl]-N-hydroxy-3-methyl-4,5,6,7-tetrahydrothieno[3,2-c]pyridine-2-carboxamide] here?
A: 50 to 100 nM

Q: `Cc1nc(C(=O)N2Cc3cc(C(=O)NO)sc3C(C)(C)C2)cs1` [Compound 222, N-hydroxy-7,7-dimethyl-5-[(2-methyl-1,3-thiazol-4-yl)carbonyl]-4,5,6,7-tetrahydrothieno[3,2-c]pyridine-2-carboxamide] was tested. Which IC50 did it give?
A: > 1000 nM

Q: Which IC50 does the source give for `CC1(C(=O)N2Cc3cc(C(=O)NO)sc3C(C)(C)C2)CCCCC1` [Compound 224, N-hydroxy-7,7-dimethyl-5-[(1-methylcyclohexyl)carbonyl]-4,5,6,7-tetrahydrothieno[3,2-c]pyridine-2-carboxamide] here?
A: > 1000 nM

Q: How did the IC50 turn out when `Cc1c(C(=O)NO)sc2c1CN(C(=O)c1ccc(C(C)(C)C)cc1)CC2` [Compound 225, 5-(4-tert-butylbenzoyl)-N-hydroxy-3-methyl-4,5,6,7-tetrahydrothieno[3,2-c]pyridine-2-carboxamide] was run?
A: 50 to 100 nM

Q: How did the IC50 turn out when `O=C(NO)c1cc2c(s1)CN(C(=O)C13CC4CC(CC(C4)C1)C3)C2` [Compound 230, 5-(1-adamantylcarbonyl)-N-hydroxy-5,6-dihydro-4H-thieno[2,3-c]pyrrole-2-carboxamide] was run?
A: 50 to 100 nM

Q: For `O=C(NO)c1cc2c(s1)CN(C(=O)c1cc3ccccc3s1)C2` [Compound 231, 5-(1-benzothien-2-ylcarbonyl)-N-hydroxy-5,6-dihydro-4H-thieno[2,3-c]pyrrole-2-carboxamide], which IC50 is on record?
A: < 50 nM

Q: With `Cc1c(C(=O)NO)sc2c1CN(C(=O)c1ccc(-c3ccccc3)cc1)CC2` [Compound 233, 5-(biphenyl-4-ylcarbonyl)-N-hydroxy-3-methyl-4,5,6,7-tetrahydrothieno[3,2-c]pyridine-2-carboxamide] as the compound, how does the IC50 read?
A: < 50 nM

Q: `CC1(C)CN(C(=O)c2ccccc2Cl)Cc2cc(C(=O)NO)sc21` [Compound 234, 5-(2-chlorobenzoyl)-N-hydroxy-7,7-dimethyl-4,5,6,7-tetrahydrothieno[3,2-c]pyridine-2-carboxamide] was tested. Which IC50 did it give?
A: > 1000 nM
